Measured values taken from US20240424111A1, “Degrader Compounds and Uses Thereof” (CALICO LIFE SCIENCES LLC, priority 2021, published 2024).

Experiments:
PTPN2 [1] = molecular target: T1, PTPN2 (Homo sapiens, UniProt P17706); test: HiBiT PTPN2 degradation in 293T.109 (HiBiT-PTPN2) cells, 24 hours; assay type: cell-based; settings: 293T.109 cells
T1 construct: expressed in transfected cells; host or cells: 293T.109 (HiBiT-PTPN2), derived from 293T WT (ATCC)
T1 sequence (P17706 1-415): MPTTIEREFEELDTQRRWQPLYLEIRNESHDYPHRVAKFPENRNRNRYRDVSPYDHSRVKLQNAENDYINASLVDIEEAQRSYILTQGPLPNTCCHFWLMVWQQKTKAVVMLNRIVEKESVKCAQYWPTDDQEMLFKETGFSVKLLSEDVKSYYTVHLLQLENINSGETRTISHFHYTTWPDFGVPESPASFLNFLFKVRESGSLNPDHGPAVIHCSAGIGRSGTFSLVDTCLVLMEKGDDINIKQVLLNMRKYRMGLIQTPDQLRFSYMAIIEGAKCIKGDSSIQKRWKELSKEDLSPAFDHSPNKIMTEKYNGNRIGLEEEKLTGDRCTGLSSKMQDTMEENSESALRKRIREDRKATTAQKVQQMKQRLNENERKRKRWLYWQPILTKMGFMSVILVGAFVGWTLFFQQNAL
How it was run: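 293T cells stably expressing N-terminal HiBiT-tagged PTPN2 were treated for 24 h at 37 °C with compound in an 11-point half-log series from 10 μM top concentration, in duplicate. Remaining HiBiT-PTPN2 was measured by lytic luminescence, with untreated cells as the negative control and wells without lytic reagent as the positive control.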

PTPN2 [2] = molecular target: T2, PTPN2 (Mus musculus, UniProt Q06180); test: HiBiT PTPN2 degradation in B16F10.4 cells, 24 hours; assay type: cell-based
T2 construct: HiBiT; host or cells: B16F10.4
T2 sequence (Q06180 1-406): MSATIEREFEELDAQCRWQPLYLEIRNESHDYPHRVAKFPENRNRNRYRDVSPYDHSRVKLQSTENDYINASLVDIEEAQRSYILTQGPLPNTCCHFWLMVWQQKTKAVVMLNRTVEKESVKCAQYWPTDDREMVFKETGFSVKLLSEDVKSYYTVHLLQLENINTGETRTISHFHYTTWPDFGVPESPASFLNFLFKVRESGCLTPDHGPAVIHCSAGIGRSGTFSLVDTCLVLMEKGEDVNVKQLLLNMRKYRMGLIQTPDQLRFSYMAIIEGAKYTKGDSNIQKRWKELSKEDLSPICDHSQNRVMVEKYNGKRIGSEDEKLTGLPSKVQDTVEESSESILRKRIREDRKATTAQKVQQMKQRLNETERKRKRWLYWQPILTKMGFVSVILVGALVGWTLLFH
How it was run: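 PTPN2 degradation was measured via luminescence from the Nano-Glo® HiBiT Lytic Assay kit. Compounds were dispensed into 384-well plates at an 11-point half-log titration in duplicate, starting at 10 μM. Cells were added at 5000 per well and held at 37° C. with 5% CO2 for 24 hours. Untreated cells were the negative control and cells without lytic reagent the positive control. Lytic reagents were then added and luminescence read on an EnVision™ Multilabel Reader.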

Row | SMILES | DC50 (PTPN2 [1]) [nM] | DC50 (PTPN2 [2]) [nM]
1 | C[C@H]1CN(c2ccc3c(c2)n(C)c(=O)n3C2CCC(=O)NC2=O)CC[C@@H]1CC(=O)Nc1ccc2c(F)c(N3CC(=O)NS3(=O)=O)c(O)cc2c1 (stereo partly drawn) [Degrader 133] | 50 to 150 | 50 to 150
2 | Cn1c(=O)n(C2CCC(=O)NC2=O)c2ccc(Cc3ccc(CC(=O)Nc4ccc5c(F)c(N6CC(=O)NS6(=O)=O)c(O)cc5c4)cc3)cc21 (stereo not drawn) [Degrader 136] | < 50 | 50 to 150
3 | Cn1c(=O)n(C2CCC(=O)NC2=O)c2ccc(-c3ccc([C@H](CO)C(=O)Nc4ccc5c(F)c(N6CC(=O)NS6(=O)=O)c(O)cc5c4)cc3)cc21 (stereo partly drawn) [Degrader 137] | 150 to 500 | < 50
4 | Cn1c(=O)n(C2CCC(=O)NC2=O)c2ccc(-c3ccc([C@@H](CO)C(=O)Nc4ccc5c(F)c(N6CC(=O)NS6(=O)=O)c(O)cc5c4)cc3)cc21 (stereo partly drawn) [Degrader 138] | < 50 | < 50
5 | Cn1c(=O)n(C2CCC(=O)NC2=O)c2ccc(N3CCN(CC(=O)Nc4ccc5c(F)c(N6CC(=O)NS6(=O)=O)c(O)cc5c4)C(=O)C3)cc21 (stereo not drawn) [Degrader 139] | 150 to 500 | ≥ 500
6 | Cn1c(=O)n(C2CCC(=O)NC2=O)c2ccc(C3CN(CC(=O)Nc4ccc5c(F)c(N6CC(=O)NS6(=O)=O)c(O)cc5c4)CCC3F)cc21 (stereo not drawn) [Degrader 140] | 50 to 150 | 150 to 500
7 | Cn1c(=O)n(C2CCC(=O)NC2=O)c2ccc([C@@H]3CN(CC(=O)Nc4ccc5c(F)c(N6CC(=O)NS6(=O)=O)c(O)cc5c4)CC[C@H]3F)cc21 (stereo partly drawn) [Degrader 141] | < 50 | 50 to 150
8 | Cn1c(=O)n(C2CCC(=O)NC2=O)c2ccc([C@H]3CN(CC(=O)Nc4ccc5c(F)c(N6CC(=O)NS6(=O)=O)c(O)cc5c4)CC[C@@H]3F)cc21 (stereo partly drawn) [Degrader 142] | 150 to 500 | 150 to 500
9 | Cn1c(=O)n(C2CCC(=O)NC2=O)c2ccc3c(c21)CCCN3CCCC(=O)Nc1ccc2c(F)c(N3CC(=O)NS3(=O)=O)c(O)cc2c1 (stereo not drawn) [Degrader 145] | ≥ 500 | ≥ 500
10 | Cn1c(=O)n(C2CCC(=O)NC2=O)c2ccc3c(c21)CCCN3CCCCC(=O)Nc1ccc2c(F)c(N3CC(=O)NS3(=O)=O)c(O)cc2c1 (stereo not drawn) [Degrader 146] | < 50 | 50 to 150
11 | C[C@@H]1CN(CC(=O)Nc2ccc3c(F)c(N4CC(=O)NS4(=O)=O)c(O)cc3c2)CCN1c1ccc2c(c1F)n(C)c(=O)n2C1CCC(=O)NC1=O (stereo partly drawn) [Degrader 148] | 50 to 150 | 150 to 500
12 | Cn1c(=O)n(C2CCC(=O)NC2=O)c2ccc(-c3ccn(CC(=O)Nc4ccc5c(F)c(N6CC(=O)NS6(=O)=O)c(O)cc5c4)n3)cc21 (stereo not drawn) [Degrader 149] | 150 to 500 | 150 to 500
13 | C[C@@H]1CN(CC(=O)Nc2ccc3c(F)c(N4CC(=O)NS4(=O)=O)c(O)cc3c2)CCN1c1cc2c(cc1F)n(C1CCC(=O)NC1=O)c(=O)n2C (stereo partly drawn) [Degrader 150] | 150 to 500 | 150 to 500
14 | Cn1c(=O)n(C2CCC(=O)NC2=O)c2ccc([C@H]3CCCN(CC(=O)Nc4ccc5c(F)c(N6CC(=O)NS6(=O)=O)c(O)cc5c4)C3)cc21 (stereo partly drawn) [Degrader 151] | 150 to 500 | 150 to 500
15 | Cn1c(=O)n(C2CCC(=O)NC2=O)c2ccc([C@@H]3CCCN(CC(=O)Nc4ccc5c(F)c(N6CC(=O)NS6(=O)=O)c(O)cc5c4)C3)cc21 (stereo partly drawn) [Degrader 152] | 50 to 150 | 150 to 500
16 | Cn1c(=O)n(C2CCC(=O)NC2=O)c2ccc(-n3cc(CC(=O)Nc4ccc5c(F)c(N6CC(=O)NS6(=O)=O)c(O)cc5c4)cn3)cc21 (stereo not drawn) [Degrader 153] | 150 to 500 | 50 to 150
17 | O=C1CCC(N2CCc3cc(C4CCN(CC(=O)N5CCC(c6ccc7cc(O)c(N8CC(=O)NS8(=O)=O)c(F)c7c6)CC5)CC4)ccc32)C(=O)N1 (stereo not drawn) [Degrader 154] | 150 to 500 | 150 to 500

Results, then the compound that gave them:

Row | DC50 (PTPN2 [1]) [nM] | DC50 (PTPN2 [2]) [nM] | SMILES
18 | 50 to 150 | 150 to 500 | Cn1nc(N2CCC(=O)NC2=O)c2cc(F)c(N3CCC(CC(=O)Nc4ccc5c(F)c(N6CC(=O)NS6(=O)=O)c(O)cc5c4)CC3)cc21 [Degrader 134]
19 | ≥ 500 | ≥ 500 | Cn1c(=O)n(C2CCC(=O)NC2=O)c2cccc(N3CCC[C@@H](OCC(=O)Nc4ccc5c(F)c(N6CC(=O)NS6(=O)=O)c(O)cc5c4)C3)c21 (stereo partly drawn) [Degrader 135]
20 | 50 to 150 | < 50 | O=C1CCC(N2C(=O)c3cccc4c(N5CCC(CC(=O)Nc6ccc7c(F)c(N8CC(=O)NS8(=O)=O)c(O)cc7c6)CC5)ccc2c34)C(=O)N1 (stereo not drawn) [Degrader 143]
21 | < 50 | 50 to 150 | Cn1c(=O)n(C2CCC(=O)NC2=O)c2ccc(N3CCC(CCNC(=O)Nc4ccc5c(F)c(N6CC(=O)NS6(=O)=O)c(O)cc5c4)CC3)c(F)c21 (stereo not drawn) [Degrader 144]
22 | 150 to 500 | 150 to 500 | Cn1c(=O)n(C2CCC(=O)NC2=O)c2ccc(N3CCC(CC(=O)Nc4ccc5c(F)c(N6CC(=O)NS6(=O)=O)c(O)cc5c4)CC3)cc21 (stereo not drawn) [Degrader 147]
23 | 150 to 500 | 50 to 150 | O=C1CCC(N2C(=O)c3cccc4c(-c5ccc(CC(=O)Nc6ccc7c(F)c(N8CC(=O)NS8(=O)=O)c(O)cc7c6)cc5)ccc2c34)C(=O)N1 (stereo not drawn) [Degrader 155]
24 | 50 to 150 | 50 to 150 | Cn1c(=O)n(C2CCC(=O)NC2=O)c2ccc(C3=CCC(CC(=O)Nc4ccc5c(F)c(N6CC(=O)NS6(=O)=O)c(O)cc5c4)CC3)cc21 (stereo not drawn) [Degrader 157]
